# Where a SMILES comes first, the peptide text is derived from it. [ ]: non-standard residue; d: D form. pY = N[C@@H](Cc1ccc(OP(=O)(O)O)cc1)C(=O)O
# Assays:
# cells [1] = conditions: Homo sapiens, NCI-H1975
# Description: Inhibition of MAPK/ERK signaling pathway in human NCI-H1975 cells
# Tubulin = conditions: k562
# Description: Inhibition of microtubule polymerization in human K562 cells measured for 60 mins by fluorescence based analysis
# [2] = biological target: T1, 5'-AMP-activated protein kinase catalytic subunit alpha-2 (Homo sapiens, UniProt P54646)
# Description: Inhibition of AMPK (unknown origin)
# [3] = biological target: T2, Phosphatidylinositol 4,5-bisphosphate 3-kinase catalytic subunit alpha isoform (Homo sapiens, UniProt P42336)
# Description: Inhibition of PI3Kalpha (unknown origin)
# Translocator protein [4] = biological target: T3, Translocator protein (Mus musculus, UniProt P50637); experiment: Binding affinity to mouse TSPO expressed in Escherichia coli assessed as inhibition constant
# [5] = biological target: T1, 5'-AMP-activated protein kinase catalytic subunit alpha-2; remark: listed apart in the source
# Description: Inhibition of AMPK signalling pathway in human HepG2 cells
# [6] = biological target: T1, 5'-AMP-activated protein kinase catalytic subunit alpha-2; remark: listed apart in the source
# Description: Agonist activity at AMPK (unknown origin)
# Translocator protein [7] = biological target: T3, Translocator protein
# Cysteine protease ATG4B = biological target: T4, Cysteine protease ATG4B (Homo sapiens, UniProt Q9Y4P1)
# T4 sequence (Q9Y4P1 whole entry): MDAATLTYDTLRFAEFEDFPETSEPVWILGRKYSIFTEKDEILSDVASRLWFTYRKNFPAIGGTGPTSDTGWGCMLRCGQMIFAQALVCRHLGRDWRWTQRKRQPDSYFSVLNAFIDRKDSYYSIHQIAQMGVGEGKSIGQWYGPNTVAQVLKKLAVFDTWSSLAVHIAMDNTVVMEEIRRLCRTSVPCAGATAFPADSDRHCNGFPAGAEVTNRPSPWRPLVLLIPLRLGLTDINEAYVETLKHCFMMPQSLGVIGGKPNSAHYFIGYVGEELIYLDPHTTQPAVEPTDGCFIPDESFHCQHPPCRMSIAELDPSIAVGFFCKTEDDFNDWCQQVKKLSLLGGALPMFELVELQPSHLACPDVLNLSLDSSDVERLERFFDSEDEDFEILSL
# Description: Inhibition of ATG4B (unknown origin) using pim-FG-PABA-AMC as substrate by fluorescence based assay
# [8] = biological target: Tumour suppressor p53/oncoprotein Mdm2 (Homo sapiens, UniProt P04637+Q00987)
# Description: Inhibition of MDM2/p53 interaction (unknown origin)
# HCT-116 = experiment: cells; conditions: Homo sapiens, HCT-116, 24 h
# Description: Induction of autophagy in human HCT-116 cells assessed as increase in p62 expression upto 5 uM incubated for 24 hrs by Western blot analysis
# [9] = biological target: T5, Tumour suppressor protein p53/Mdm4 (Homo sapiens, UniProt O15151+P04637)
# Description: Inhibition of MDM4/p53 (unknown origin)
# cells [10] = conditions: Homo sapiens, PC-3
# Description: Inhibition of V-ATPase activity in lysosomes of human PC-3 cells
# [11] = biological target: T5, Tumour suppressor protein p53/Mdm4; remark: listed apart in the source
# Description: Binding affinity to MDM4/p53 interaction (unknown origin) assessed as inhibition constant
# cells [12] = conditions: Homo sapiens, HK-2, 6 h
# Description: Downregulation of BNIP3 expression in human HK-2 cells incubated for 6 hrs by Western blot analysis
# [13] = biological target: T6, Testis-expressed protein 264 (Homo sapiens, UniProt Q9Y6I9)
# T6 sequence (Q9Y6I9 whole entry): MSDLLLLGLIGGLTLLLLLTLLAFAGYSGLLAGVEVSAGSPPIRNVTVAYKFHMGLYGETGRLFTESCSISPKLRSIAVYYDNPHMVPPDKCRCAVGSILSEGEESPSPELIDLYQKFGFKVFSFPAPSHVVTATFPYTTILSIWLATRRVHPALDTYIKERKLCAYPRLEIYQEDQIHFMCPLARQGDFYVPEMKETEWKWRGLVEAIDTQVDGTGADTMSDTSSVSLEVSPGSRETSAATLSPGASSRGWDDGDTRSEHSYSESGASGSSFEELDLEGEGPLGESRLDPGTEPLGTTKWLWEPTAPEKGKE
# Description: Inhibition of TEX264 (unknown origin)
# [14] = biological target: Serine/threonine-protein kinase mTOR (Homo sapiens, UniProt P42345)
# Description: Inhibition of human mTORC1 incubated for 90 mins by Lanthascreen time-resolved FRET assay
# [15] = biological target: T1, 5'-AMP-activated protein kinase catalytic subunit alpha-2; remark: listed apart in the source
# [16] = biological target: T2, Phosphatidylinositol 4,5-bisphosphate 3-kinase catalytic subunit alpha isoform; remark: listed apart in the source
# Description: Inhibition of PI3Kalpha (unknown origin) by kinase profiling assay
# Translocator protein [17] = biological target: Translocator protein (Rattus norvegicus, UniProt P16257)
# [18] = biological target: Phosphatidylinositol 3-kinase catalytic subunit type 3 (Homo sapiens, UniProt Q8NEB9)
# Description: Inhibition of human PIK3C3 using PI as substrate by ADP-Glo assay
# PC-12 = experiment: cells; conditions: Rattus norvegicus
# Description: Neuroprotective activity against rat PC12 cells assessed as decrease in H2O2-induced intracellular Ca2+ level preincubated for 12 hrs followed by H2O2-stimulation and measured after 12 hrs by Fluo-3 AM dye based flow cytometry
# [19] = biological target: T1, 5'-AMP-activated protein kinase catalytic subunit alpha-2; remark: listed apart in the source
# Description: Binding affinity to AMPK (unknown origin) assessed as inhibition constant
smiles,measurement,setting,value
C=C1C(=O)O[C@@H]2/C=C(\C)CC/C=C(\C)CC[C@@H]12 [COSTUNOLIDE],IC50,cells [1],2100 nM
COc1ccc(S(=O)(=O)Nc2cccnc2Nc2ccc(O)cc2)cc1 [ABT-751],IC50,Tubulin,700 nM
O=C1C[C@@H](c2ccc(O)cc2)Oc2cc(O)ccc21 [LIQUIRTIGENIN],IC50,Tubulin,340 nM
OC[C@H]1O[C@@H](Oc2ccc3c(c2)OC[C@H]2c4cc5c(cc4O[C@@H]32)OCO5)[C@H](O)[C@@H](O)[C@@H]1O [TRIFOLIRHIZIN],IC50,[2],506000 nM
O=C(Nc1ccc(Oc2ccc(Cl)cc2)c(Cl)c1)c1cc(I)cc(I)c1O [RAFOXANIDE],IC50,[3],13000 nM
CC[C@@H](C)N(C)C(=O)c1cc2ccccc2c(-c2ccccc2Cl)n1 [(R)PK-11195],Ki,Translocator protein [4],0.4 nM
COc1ccc2cc3[n+](cc2c1OC)CCc1cc2c(cc1-3)OCO2 [BERBERINE],IC50,[5],12000 nM
Oc1cc(O)c2c(c1)O[C@@]1(c3ccc(O)c(O)c3)Oc3cc(O)c4c(c3[C@@H]2[C@H]1O)O[C@H](c1ccc(O)c(O)c1)[C@@H](O)C4 [PROANTHOCYANIDIN A1],EC50,[6],5100 nM
C[C@H]1CCCC(=O)CCC/C=C/c2cc(O)cc(O)c2C(=O)O1 [ZEARALENONE],IC50,Translocator protein [7],500 nM
Clc1ccc(C(Cn2ccnc2)OCc2ccsc2Cl)c(Cl)c1 (stereo unspecified) [TIOCONAZOLE],IC50,Cysteine protease ATG4B,1300 nM
CC(=O)O[C@H]1C(=O)[C@]2(C)[C@H](O)C[C@H]3OC[C@@]3(OC(C)=O)[C@H]2[C@H](OC(=O)c2ccccc2)[C@]2(O)C[C@H](OC(=O)[C@H](O)[C@@H](NC(=O)c3ccccc3)c3ccccc3)C(C)=C1C2(C)C,IC50,cells [1],5 nM
CC[C@@H]1[C@@H](C)O[C@@](O)([C@@H](C)[C@H](O)[C@H](C)[C@H]2OC(=O)/C=C/C=C/[C@H](C)[C@@H]([C@@H](C)[C@@H](O)[C@H](C)[C@@]3(O)C[C@@H](O[C@H]4C[C@H](O)[C@H](O)[C@H](C)O4)[C@H](CC)[C@@H](C)O3)OC(=O)/C=C/C=C/[C@@H]2C)C[C@H]1O[C@H]1C[C@H](O)[C@H](O)[C@H](C)O1,IC50,cells [1],4.2 nM
COc1ccc2cc1Oc1ccc(cc1)C[C@@H]1c3cc(c(OC)cc3CCN1C)Oc1c(OC)c(OC)cc3c1[C@@H](C2)N(C)CC3 [PHAEANTHINE],IC50,[8],179 nM
CC(=O)N[C@@H](CC(C)C)C(=O)N[C@@H](CC(C)C)C(=O)N[C@H](C=O)CCCNC(=N)N,IC50,HCT-116,2500 nM
C=CCS[S+]([O-])CC=C (stereo unspecified) [ALLICIN],IC50,[9],11 nM
Cn1nccc1Nc1nccc(-c2cc3c(s2)C(C)(C)N(CCN2CCOCC2)C3=O)n1 [TEMUTERKIB],IC50,cells [1],5 nM
COc1ccc(-c2cc(=O)c3c(OC)c(OC)c(OC)cc3o2)cc1OC [SINENSETIN],IC50,[8],3200 nM
NCCCCNCCCN [SPERMIDINE],IC50,cells [10],112000 nM
CCOC(=O)c1[nH]c(Br)c(-c2ccc(OC)c(OC)c2)c1Br,IC50,Tubulin,360 nM
O=c1c2ccccc2[se]n1-c1ccccc1 [EBSELEN],IC50,Cysteine protease ATG4B,180 nM
CN(C)CC[C@H](CSc1ccccc1)Nc1ccc(S(=O)(=O)NC(=O)c2ccc(N3CCN(Cc4ccccc4-c4ccc(Cl)cc4)CC3)cc2)cc1[N+](=O)[O-] [ABT 737],Ki,[11],0.8 nM
Cc1nc(C(=O)NCC(=O)O)c(O)c2ccc(Oc3ccccc3)cc12 [ROXADUSTAT],IC50,cells [12],10 nM
O=C(Oc1cccc(/C=N/Nc2nc(Nc3ccccc3)nc(N3CCOCC3)n2)c1)c1ccco1,IC50,[13],10 nM
CN(Cc1ccccc1)S(=O)(=O)c1cc(C(=O)O)c(NCc2ccco2)cc1Cl,IC50,[13],15 nM
CCN(CCO)CCCC(C)Nc1ccnc2cc(Cl)ccc12 (stereo unspecified) [HYDROXYCHLOROQUINE],IC50,cells [10],0.21 nM
CO[C@H]1C[C@@H]2CC[C@@H](C)[C@@](O)(O2)C(=O)C(=O)N2CCCC[C@H]2C(=O)O[C@H]([C@H](C)C[C@@H]2CC[C@@H](OCCO)[C@H](OC)C2)CC(=O)[C@H](C)/C=C(\C)[C@@H](O)[C@@H](OC)C(=O)[C@H](C)C[C@H](C)/C=C/C=C/C=C/1C [EVEROLIMUS],IC50,[14],150 nM
CC(C)=CCC/C(C)=C/Cc1c(O)cc2c(c1O)C(=O)C[C@@H](c1ccc(O)cc1)O2 [BONANNIONE A],IC50,[8],3700 nM
CNC(=O)c1ccccc1Oc1nc(Nc2cc(OC)c(OC)c(OC)c2)ncc1Br,IC50,[15],108 nM
BrNc1nc(N/N=C\c2c[nH]c3ccccc23)nc(N2CCOCC2)n1,IC50,HCT-116,300 nM
C=CC(C1=CC(=O)C(OC)=CC1=O)c1ccccc1 (stereo unspecified) [4-METHOXYDALBERGIONE],IC50,cells [1],2230 nM
CO/C1=C\C(C)=C\[C@@H](C)[C@@H](O)[C@@H](C)C/C(C)=C/C=C/[C@H](OC)[C@@H]([C@@H](C)[C@@H](O)[C@H](C)[C@@]2(O)C[C@@H](O)[C@H](C)[C@@H](C(C)C)O2)OC1=O [BAFILOMYCIN A1],IC50,cells [10],0.06 nM
CC[C@H](C)[C@H](NC(=O)[C@H](CCCCN)NC(=O)[C@@H](NC(=O)[C@H](CCC(N)=O)NC(=O)[C@@H](N)CCCNC(=N)N)[C@@H](C)CC)C(=O)N[C@@H](Cc1c[nH]c2ccccc12)C(=O)N[C@@H](Cc1ccccc1)C(=O)N[C@@H](CCC(N)=O)C(=O)N[C@@H](CC(N)=O)C(=O)N[C@@H](CCCNC(=N)N)C(=O)N[C@@H](CCCNC(=N)N)C(=O)N[C@@H](CCSC)C(=O)N[C@@H](CCCCN)C(=O)N[C@@H](Cc1c[nH]c2ccccc12)C(=O)N[C@@H](CCCCN)C(=O)N[C@@H](CCCCN)C(=O)N[C@@H](CO)C(=O)N[C@@H](CC(=O)O)C(=O)NCC(=O)NCC(=O)N[C@@H](Cc1ccc(OP(=O)(O)O)cc1)C(=O)N[C@@H](CCSC)C(=O)N[C@@H](CC(=O)O)C(=O)N[C@@H](CCSC)C(=O)N[C@@H](CO)C(=O)O (H-RQIKIWFQNRRMKWKKSDGG[pY]MDMS-OH),IC50,[16],30000 nM
COc1cc2c(cc1OC)-c1c(OC)c(OC)cc3ccnc(c13)C2=O [OXOGLAUCINE],IC50,Translocator protein [17],300 nM
OCc1c(C2CC2)nc2ccccc2c1-c1ccc(F)cc1,EC50,[6],300 nM
Oc1ccc(/C=C/c2cc(O)cc(O)c2)cc1 [RESVERATROL],IC50,[15],50000 nM
Cc1[nH]c2ccccc2c1CCNCc1ccc(/C=C/C(=O)NO)cc1 [PANOBINOSTAT],IC50,[18],5 nM
C[C@]12CCC(=O)C=C1CC[C@@H]1[C@@H]2[C@@H](O)C[C@]2(C=O)[C@@H](C(=O)CO)CC[C@@H]12 [ALDOSTERONE],EC50,[6],1.3 nM
C[C@@H]1COCCN1c1cc(N2CCCC[C@@H]2C(F)(F)F)[nH]c(=O)c1,IC50,[18],14 nM
CC(C)(C)c1ccc(C(O)CCCN2CCC(C(O)(c3ccccc3)c3ccccc3)CC2)cc1 (stereo unspecified) [TERFENADINE],IC50,Translocator protein [7],1 nM
O=C(O[C@@H]1Cc2c(O)cc(O)cc2O[C@@H]1c1cc(O)c(O)c(O)c1)c1cc(O)c(O)c(O)c1 [EPIGALOCATECHIN GALLATE],IC50,PC-12,30 nM
CC(C)Nc1cc(-c2c[nH]c(C(=O)N[C@H](CO)c3cccc(Cl)c3)c2)c(Cl)cn1 [ULIXERTINIB],IC50,cells [1],300 nM
Cc1ccc(NC(=O)NCc2ccc3c(c2)CN(C2CCC(=O)NC2=O)C3=O)cc1Cl (stereo unspecified),IC50,cells [12],2 nM
COC(=O)C1=C(C)NC(C)=C(C(=O)OC)C1c1ccccc1[N+](=O)[O-] [NIFEDIPINE],IC50,Translocator protein [17],0.5 nM
N#CC1C(=O)Nc2scc(-c3ccc(-c4ccccc4O)cc3)c2C1=O (stereo unspecified),EC50,[6],800 nM
CC(C(O)c1ccc(O)cc1)N1CCC(Cc2ccccc2)CC1 (stereo unspecified) [IFENPRODIL],IC50,Translocator protein [17],0.73 nM
c1cc(-c2cnn3cc(-c4ccc(OCCN5CCCCC5)cc4)cnc23)ccn1 [DORSOMORPHIN],Ki,[19],109 nM
